Data: patent publication US11103510B2, “JAK1 pathway inhibitors for the treatment of cytokine-related disorders” (Incyte Corporation, priority 2018, dated 2021)

Assays:
[1] = target: human JAK1 (a.a. 837-1142) (Homo sapiens, UniProt P23458); experiment: In vitro JAK kinase assay (HTRF), JAK1; assay type: biochemical; details: 1 mM ATP
Procedure: (§1) The catalytic activity of JAK1, JAK2 or JAK3 was assayed by measuring the phosphorylation of a biotinylated peptide. The phosphorylated peptide was detected by homogenous time resolved fluorescence (HTRF). […] Reactions are carried out at room temperature for 1 hour and then stopped with 20 μL 45 mM EDTA, 300 nM SA-APC, 6 nM Eu-Py20 in assay buffer (Perkin Elmer, Boston, Mass.). Binding to the Europium labeled antibody takes place for 40 minutes and HTRF signal was measured on a Fusion plate reader (Perkin Elmer, Boston, Mass.).

[2] = target: human JAK2 (a.a. 828-1132) (Homo sapiens (Human), UniProt O60674); experiment: In vitro JAK kinase assay (HTRF), JAK2, for JAK2/JAK1 ratio; assay type: biochemical; details: IC50 ratio, 1 mM ATP
human JAK2 (a.a. 828-1132), sequence (O60674 828-1132): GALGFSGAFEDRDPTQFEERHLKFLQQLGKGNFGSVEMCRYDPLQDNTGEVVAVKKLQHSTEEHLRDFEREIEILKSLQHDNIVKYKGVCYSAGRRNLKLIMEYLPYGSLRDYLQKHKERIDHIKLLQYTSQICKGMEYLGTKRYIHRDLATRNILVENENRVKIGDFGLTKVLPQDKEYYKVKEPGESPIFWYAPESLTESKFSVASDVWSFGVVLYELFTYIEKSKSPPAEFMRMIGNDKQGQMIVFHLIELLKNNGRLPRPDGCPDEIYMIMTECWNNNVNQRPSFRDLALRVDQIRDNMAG
Procedure: as §1

Row | IC50 [1] [nM] | JAK2/JAK1 [2] | Compound
1 | < 10 | >10 | CCNCc1cc(O[C@H]2CC[C@@H](N3CC(CC#N)(n4cc(-c5ncnc6[nH]ccc56)cn4)C3)CC2)nc(C(F)(F)F)c1 [Compound 19, {1-(cis-4-{[4-[(ethylamino)methyl]-6-(trifluoromethyl)pyridin-2-yl]oxy}cyclohexyl)-3-[4-(7H-pyrrolo[2,3-d]pyrimidin-4-yl)-1H-pyrazol-1-yl]azetidin-3-yl}acetonitrile]
2 | < 10 | >10 | N#CCC1(n2cc(-c3ncnc4[nH]ccc34)cn2)CN([C@H]2CC[C@@H](Oc3cc(CN4CC[C@H](O)C4)cc(C(F)(F)F)n3)CC2)C1 [Compound 22, {1-(cis-4-{[4-{[(3S)-3-hydroxypyrrolidin-1-yl]methyl}-6-(trifluoromethyl)pyridin-2-yl]oxy}cyclohexyl)-3-[4-(7H-pyrrolo[2,3-d]pyrimidin-4-yl)-1H-pyrazol-1-yl]azetidin-3-yl}acetonitrile]
3 | < 10 | >10 | N#CCC1(n2cc(-c3ncnc4[nH]ccc34)cn2)CN([C@H]2CC[C@@H](Oc3cc(CN4CC[C@@H](O)C4)cc(C(F)(F)F)n3)CC2)C1 [Compound 21, {1-(cis-4-{[4-{[(3R)-3-hydroxypyrrolidin-1-yl]methyl}-6-(trifluoromethyl)pyridin-2-yl]oxy}cyclohexyl)-3-[4-(7H-pyrrolo[2,3-d]pyrimidin-4-yl)-1H-pyrazol-1-yl]azetidin-3-yl}acetonitrile]
4 | < 10 | >10 | CC(C)(O)c1cc(O[C@H]2CC[C@@H](N3CC(CC#N)(n4cc(-c5ncnc6[nH]ccc56)cn4)C3)CC2)nc(C(F)(F)F)c1 [Compound 20, {1-(cis-4-{[4-(1-hydroxy-1-methylethyl)-6-(trifluoromethyl)pyridin-2-yl]oxy}cyclohexyl)-3-[4-(7H-pyrrolo[2,3-d]pyrimidin-4-yl)-1H-pyrazol-1-yl]azetidin-3-yl}acetonitrile]
5 | < 10 | >10 | N#CC[C@]1(n2cc(-c3ncnc4[nH]ccc34)cn2)C[C@H](N2CCC(Oc3cc(CCO)cc(C(F)(F)F)n3)CC2)C1 [Compound 26, {trans-3-(4-{[4-(2-hydroxyethyl)-6-(trifluoromethyl)pyridin-2-yl]oxy}piperidin-1-yl)-1-[4-(7H-pyrrolo[2,3-d]pyrimidin-4-yl)-1H-pyrazol-1-yl]cyclobutyl}acetonitrile]
6 | < 10 | >10 | C[C@H](O)CNCc1cc(OC2CCN([C@H]3C[C@](CC#N)(n4cc(-c5ncnc6[nH]ccc56)cn4)C3)CC2)nc(C(F)(F)F)c1 [Compound 25, {trans-3-(4-{[4-({[(2S)-2-hydroxypropyl]amino}methyl)-6-(trifluoromethyl)pyridin-2-yl]oxy}piperidin-1-yl)-1-[4-(7H-pyrrolo[2,3-d]pyrimidin-4-yl)-1H-pyrazol-1-yl]cyclobutyl}acetonitrile]

More lines, now with the values behind:

Row | Compound | IC50 [1] [nM] | JAK2/JAK1 [2]
7 | C[C@@H](O)c1nc2cnc3ccsc3c2n1[C@H]1CC[C@H](CC#N)OC1 [Compound 5, ((2R,5S)-5-{2-[(1R)-1-hydroxyethyl]-1H-imidazo[4,5-d]thieno[3,2-b]pyridin-1-yl}tetrahydro-2H-pyran-2-yl)acetonitrile] | < 100 | >10
8 | N#CCC(CN1CCN(C(=O)c2ccc(C#N)cc2F)CC1)n1cc(-c2ncnc3[nH]ccc23)cn1 (stereo not shown) [Compound 8, 4-[(4-{3-cyano-2-[4-(7H-pyrrolo[2,3-d]pyrimidin-4-yl)-1H-pyrazol-1-yl]propyl}piperazin-1-yl)carbonyl]-3-fluorobenzonitrile] | < 10 | >10
9 | N#CC[C@]1(n2cc(-c3ncnc4[nH]ccc34)cn2)C[C@H](N2CCC(Oc3cc(CN4CCC[C@H]4CO)cc(C(F)(F)F)n3)CC2)C1 [Compound 12, {trans-3-(4-{[4-{[(2S)-2-(hydroxymethyl)pyrrolidin-1-yl]methyl}-6-(trifluoromethyl)pyridin-2-yl]oxy}piperidin-1-yl)-1-[4-(7H-pyrrolo[2,3-d]pyrimidin-4-yl)-1H-pyrazol-1-yl]cyclobutyl}acetonitrile] | < 10 | >10
10 | N#CCC(CN1CCN(C(=O)c2ccc(C#N)cc2F)CC1)n1ccc(-c2ncnc3[nH]ccc23)c1 (stereo not shown) [Compound 9, 4-[(4-{3-cyano-2-[3-(7H-pyrrolo[2,3-d]pyrimidin-4-yl)-1H-pyrrol-1-yl]propyl}piperazin-1-yl)carbonyl]-3-fluorobenzonitrile] | < 10 | >10
11 | C[C@H](NC(=O)c1cc(F)c(N2CC(CC#N)(n3cc(-c4ncnc5[nH]ccc45)cn3)C2)cc1F)C(F)(F)F [Compound 16, 4-{3-(cyanomethyl)-3-[4-(7H-pyrrolo[2,3-d]pyrimidin-4-yl)-1H-pyrazol-1-yl]azetidin-1-yl}-2,5-difluoro-N-[(1S)-2,2,2-trifluoro-1-methylethyl]benzamide] | < 10 | >10
12 | N#CC[C@]1(n2cc(-c3ncnc4[nH]ccc34)cn2)C[C@H](N2CCC(Oc3cc(CN4CCC[C@@H]4CO)cc(C(F)(F)F)n3)CC2)C1 [Compound 13, {trans-3-(4-{[4-{[(2R)-2-(hydroxymethyl)pyrrolidin-1-yl]methyl}-6-(trifluoromethyl)pyridin-2-yl]oxy}piperidin-1-yl)-1-[4-(7H-pyrrolo[2,3-d]pyrimidin-4-yl)-1H-pyrazol-1-yl]cyclobutyl}acetonitrile] | < 10 | >10
13 | N#CC[C@]1(n2cc(-c3ncnc4[nH]ccc34)cn2)C[C@H](N2CCC(Oc3cc(CN4CC(O)C4)cc(C(F)(F)F)n3)CC2)C1 [Compound 11, {trans-3-(4-{[4-[(3-hydroxyazetidin-1-yl)methyl]-6-(trifluoromethyl)pyridin-2-yl]oxy}piperidin-1-yl)-1-[4-(7H-pyrrolo[2,3-d]pyrimidin-4-yl)-1H-pyrazol-1-yl]cyclobutyl}acetonitrile] | < 10 | >10
14 | N#CC[C@]1(n2cc(-c3ncnc4[nH]ccc34)cn2)C[C@H](N2CCN(C(=O)c3ccnc(C(F)(F)F)n3)CC2)C1 [Compound 10, [trans-1-[4-(7H-pyrrolo[2,3-d]pyrimidin-4-yl)-1H-pyrazol-1-yl]-3-(4-{[2-(trifluoromethyl)pyrimidin-4-yl]carbonyl}piperazin-1-yl)cyclobutyl]acetonitrile] | < 10 | >10
15 | N#CCC1(n2cc(-c3ncnc4[nH]ccc34)cn2)CN([C@H]2CC[C@@H](Oc3cc(CCO)nc(C(F)(F)F)n3)CC2)C1 [Compound 18, {1-(cis-4-{[6-(2-hydroxyethyl)-2-(trifluoromethyl)pyrimidin-4-yl]oxy}cyclohexyl)-3-[4-(7H-pyrrolo[2,3-d]pyrimidin-4-yl)-1H-pyrazol-1-yl]azetidin-3-yl}acetonitrile] | < 10 | >10
16 | N#CCC(C1CCN(c2nc3cccnc3o2)C1)n1cc(-c2ncnc3[nH]ccc23)cn1 (stereo not shown) [Compound 7, 3-(1-[1,3]oxazolo[5,4-b]pyridin-2-ylpyrrolidin-3-yl)-3-[4-(7H-pyrrolo[2,3-d]pyrimidin-4-yl)-1H-pyrazol-1-yl]propanenitrile] | < 10 | >10
17 | N#CCC(C1CCN(c2cccc(Cl)n2)C1)n1cc(-c2ncnc3[nH]ccc23)cn1 (single isomer, unassigned) [Compound 6, 3-[1-(6-chloropyridin-2-yl)pyrrolidin-3-yl]-3-[4-(7H-pyrrolo[2,3-d]pyrimidin-4-yl)-1H-pyrazol-1-yl]propanenitrile] | < 10 | >10
